Activity calls are given as the source filed them. How the calls were made is not given here.

This data set deals with CCRIS mutagenicity, Ames/micronucleus/aberration tests. Kind of data set: CCRIS mutagenicity studies.
The mark [1] stands for this setting: Test System: AMES SALMONELLA TYPHIMURIUM, Strain/Indicator: TA98, Metabolic Activation: NONE, Method: STANDARD PLATE.
Where [2] appears, read: Test System: AMES SALMONELLA TYPHIMURIUM, Strain/Indicator: TA98, Metabolic Activation: RAT, LIVER, S-9, AROCLOR 1254, Method: STANDARD PLATE.
The mark [3] stands for this setting: Test System: AMES SALMONELLA TYPHIMURIUM, Strain/Indicator: TA100, Metabolic Activation: NONE, Method: STANDARD PLATE.
The mark [4] stands for this setting: Test System: AMES SALMONELLA TYPHIMURIUM, Strain/Indicator: TA100, Metabolic Activation: RAT, LIVER, S-9, AROCLOR 1254, Method: STANDARD PLATE.
Where [5] appears, read: Test System: AMES SALMONELLA TYPHIMURIUM, Strain/Indicator: TA100, Metabolic Activation: RAT, LIVER, S-9, PHENOBARBITAL AND 5,6-BENZOFLAVONE, Method: PREINCUBATION

Take `[O-]/[N+](=N\O)c1ccccc1`: the mutagenic call (Test System: AMES SALMONELLA TYPHIMURIUM, Strain/Indicator: TA98, Metabolic Activation: HAMSTER, LIVER, S-9, AROCLOR 1254, Method: STANDARD PLATE) is “inactive; negative”; the mutagenic call (Test System: AMES SALMONELLA TYPHIMURIUM, Strain/Indicator: TA98, Metabolic Activation: MOUSE, LIVER, S-9, AROCLOR 1254, Method: STANDARD PLATE) was “inactive; negative”; the mutagenic call (Test System: AMES SALMONELLA TYPHIMURIUM, Strain/Indicator: TA98, Metabolic Activation: MOUSE, LIVER, S-9, Method: STANDARD PLATE) was “inactive; negative”; the mutagenic call under setting [1] is “inactive; negative”; the mutagenic call under setting [2] is “inactive; negative”; the mutagenic call (Test System: AMES SALMONELLA TYPHIMURIUM, Strain/Indicator: TA98, Metabolic Activation: RAT, LIVER, S-9, Method: STANDARD PLATE) is “inactive; negative”. Besides, the mutagenic call reads like this: (Test System: AMES SALMONELLA TYPHIMURIUM, Strain/Indicator: TA100, Metabolic Activation: HAMSTER, LIVER, S-9, AROCLOR 1254, Method: STANDARD PLATE) “inactive; negative”; (Test System: AMES SALMONELLA TYPHIMURIUM, Strain/Indicator: TA100, Metabolic Activation: HAMSTER, LIVER, S-9, Method: STANDARD PLATE) “inactive; negative”; (Test System: AMES SALMONELLA TYPHIMURIUM, Strain/Indicator: TA100, Metabolic Activation: MOUSE, LIVER, S-9, AROCLOR 1254, Method: STANDARD PLATE) “inactive; negative”; (Test System: AMES SALMONELLA TYPHIMURIUM, Strain/Indicator: TA100, Metabolic Activation: MOUSE, LIVER, S-9, Method: STANDARD PLATE) “inactive; negative”; under setting [3], “inactive; negative”; under setting [4], “inactive; negative”. Besides, the mutagenic call (Test System: AMES SALMONELLA TYPHIMURIUM, Strain/Indicator: TA100, Metabolic Activation: RAT, LIVER, S-9, Method: STANDARD PLATE) is “inactive; negative”; the mutagenic call (Test System: AMES SALMONELLA TYPHIMURIUM, Strain/Indicator: TA1535, Metabolic Activation: HAMSTER, LIVER, S-9, AROCLOR 1254, Method: STANDARD PLATE) was “inactive; negative”; the mutagenic call (Test System: AMES SALMONELLA TYPHIMURIUM, Strain/Indicator: TA1535, Metabolic Activation: HAMSTER, LIVER, S-9, Method: STANDARD PLATE) is “inactive; negative”; the mutagenic call (Test System: AMES SALMONELLA TYPHIMURIUM, Strain/Indicator: TA1535, Metabolic Activation: MOUSE, LIVER, S-9, AROCLOR 1254, Method: STANDARD PLATE) is “inactive; negative”; the mutagenic call (Test System: AMES SALMONELLA TYPHIMURIUM, Strain/Indicator: TA1535, Metabolic Activation: MOUSE, LIVER, S-9, Method: STANDARD PLATE) was “inactive; negative”; the mutagenic call (Test System: AMES SALMONELLA TYPHIMURIUM, Strain/Indicator: TA1535, Metabolic Activation: NONE, Method: STANDARD PLATE) is “inactive; negative”. Moreover, the mutagenic call was “inactive; negative” (Test System: AMES SALMONELLA TYPHIMURIUM, Strain/Indicator: TA1535, Metabolic Activation: RAT, LIVER, S-9, AROCLOR 1254, Method: STANDARD PLATE); “inactive; negative” (Test System: AMES SALMONELLA TYPHIMURIUM, Strain/Indicator: TA1535, Metabolic Activation: RAT, LIVER, S-9, Method: STANDARD PLATE); “inactive; negative” (Test System: AMES SALMONELLA TYPHIMURIUM, Strain/Indicator: TA1537, Metabolic Activation: HAMSTER, LIVER, S-9, AROCLOR 1254, Method: STANDARD PLATE); “inactive; negative” (Test System: AMES SALMONELLA TYPHIMURIUM, Strain/Indicator: TA1537, Metabolic Activation: HAMSTER, LIVER, S-9, Method: STANDARD PLATE); “inactive; negative” (Test System: AMES SALMONELLA TYPHIMURIUM, Strain/Indicator: TA1537, Metabolic Activation: MOUSE, LIVER, S-9, AROCLOR 1254, Method: STANDARD PLATE); “inactive; negative” (Test System: AMES SALMONELLA TYPHIMURIUM, Strain/Indicator: TA1537, Metabolic Activation: MOUSE, LIVER, S-9, Method: STANDARD PLATE). Besides, the mutagenic call is, setting by setting: (Test System: AMES SALMONELLA TYPHIMURIUM, Strain/Indicator: TA1537, Metabolic Activation: NONE, Method: STANDARD PLATE) “inactive; negative”; (Test System: AMES SALMONELLA TYPHIMURIUM, Strain/Indicator: TA1537, Metabolic Activation: RAT, LIVER, S-9, AROCLOR 1254, Method: STANDARD PLATE) “inactive; negative”; (Test System: AMES SALMONELLA TYPHIMURIUM, Strain/Indicator: TA1537, Metabolic Activation: RAT, LIVER, S-9, Method: STANDARD PLATE) “inactive; negative”; (Test System: AMES SALMONELLA TYPHIMURIUM, Strain/Indicator: TA1538, Metabolic Activation: HAMSTER, LIVER, S-9, AROCLOR 1254, Method: STANDARD PLATE) “inactive; negative”; (Test System: AMES SALMONELLA TYPHIMURIUM, Strain/Indicator: TA1538, Metabolic Activation: HAMSTER, LIVER, S-9, Method: STANDARD PLATE) “inactive; negative”; (Test System: AMES SALMONELLA TYPHIMURIUM, Strain/Indicator: TA1538, Metabolic Activation: RAT, LIVER, S-9, AROCLOR 1254, Method: STANDARD PLATE) “inactive; negative”. Besides, the mutagenic call by setting is: (Test System: E. COLI, Strain/Indicator: WP2 UVRA, Metabolic Activation: HAMSTER, LIVER, S-9, Method: STANDARD PLATE) “inactive; negative”; (Test System: E. COLI, Strain/Indicator: WP2 UVRA, Metabolic Activation: MOUSE, LIVER, S-9, AROCLOR 1254, Method: STANDARD PLATE) “inactive; negative”; (Test System: E. COLI, Strain/Indicator: WP2 UVRA, Metabolic Activation: MOUSE, LIVER, S-9, Method: STANDARD PLATE) “inactive; negative”; (Test System: E. COLI, Strain/Indicator: WP2 UVRA, Metabolic Activation: NONE, Method: STANDARD PLATE) “inactive; negative”; (Test System: E. COLI, Strain/Indicator: WP2 UVRA, Metabolic Activation: RAT, LIVER, S-9, Method: STANDARD PLATE) “inactive; negative”.
As for `COc1cccc(C=O)c1`, under “Test System: MOUSE LYMPHOMA, Strain/Indicator: L5178Y (TK+/TK-), Metabolic Activation: NONE, Method: SUSPENSION/PLATE”, the mutagenic call is “inactive; negative”.
In the case of `Cc1c(N=[N+]([O-])c2cccc([N+](=O)[O-])c2C)cccc1[N+](=O)[O-]`, the mutagenic call (Test System: AMES SALMONELLA TYPHIMURIUM, Strain/Indicator: TA98, Metabolic Activation: NONE, Method: PREINCUBATION) is “inactive; negative”; the mutagenic call (Test System: AMES SALMONELLA TYPHIMURIUM, Strain/Indicator: TA98, Metabolic Activation: RAT, LIVER, S-9, PHENOBARBITAL AND 5,6-BENZOFLAVONE, Method: PREINCUBATION) was “inactive; negative”; the mutagenic call (Test System: AMES SALMONELLA TYPHIMURIUM, Strain/Indicator: TA100, Metabolic Activation: NONE, Method: PREINCUBATION) was “inactive; negative”; the mutagenic call under setting [5] is “inactive; negative”.
Consider `Fc1ccc(F)c2ncccc12`, for which the mutagenic call (Test System: AMES SALMONELLA TYPHIMURIUM, Strain/Indicator: TA100, Metabolic Activation: RAT LIVER S-9, PHENOBARBITAL AND 5,6-BENZOFLAVONE, Method: PREINCUBATION) was “active; positive” and the mutagenic call under setting [5] is “active; positive”.
For `Cc1cc(C)cc(C)c1`, the mutagenic call (Test System: AMES SALMONELLA TYPHIMURIUM, Strain/Indicator: TA97A, Metabolic Activation: NONE, Method: STANDARD PLATE) is “inactive; negative”; the mutagenic call (Test System: AMES SALMONELLA TYPHIMURIUM, Strain/Indicator: TA97A, Metabolic Activation: RAT, LIVER, S-9, AROCLOR 1254, Method: STANDARD PLATE) was “inactive; negative”; the mutagenic call under setting [1] was “inactive; negative”; the mutagenic call under setting [2] was “inactive; negative”; the mutagenic call under setting [3] was “inactive; negative”; the mutagenic call under setting [4] is “inactive; negative”. The mutagenic call is “inactive; negative” (Test System: AMES SALMONELLA TYPHIMURIUM, Strain/Indicator: TA102, Metabolic Activation: NONE, Method: STANDARD PLATE) and “inactive; negative” (Test System: AMES SALMONELLA TYPHIMURIUM, Strain/Indicator: TA102, Metabolic Activation: RAT, LIVER, S-9, AROCLOR 1254, Method: STANDARD PLATE).

(Values after PubChem BioAssay AID1259407 (Chemical Carcinogenesis Research Information System (CCRIS), 2018).)
